Like-named read-outs stand apart in the source and are kept apart here.

For assay [1], the system named is progesterone receptor. As to the kind of experiment: Effect on progesterone receptors in melanoma. To be noted: 1:1000 DHT to compound. The assay is classed as binding.
The next assay relates to progesterone receptors. The assay can be described thus: Effect on progesterone receptors in breast capsule tissue. Format: binding, human. To be noted: breast capsule / hard band tissue. How it is done:
"Hard fibrous band" formation was retarded around breast implants following augmentation surgery.
The tissues were evaluated, with appropriate controls, for effects by the novel anti-androgen.

For assay [2], the target named is T1, androgen receptor (Homo sapiens, UniProt P10275).
T1 sequence (P10275 1-920): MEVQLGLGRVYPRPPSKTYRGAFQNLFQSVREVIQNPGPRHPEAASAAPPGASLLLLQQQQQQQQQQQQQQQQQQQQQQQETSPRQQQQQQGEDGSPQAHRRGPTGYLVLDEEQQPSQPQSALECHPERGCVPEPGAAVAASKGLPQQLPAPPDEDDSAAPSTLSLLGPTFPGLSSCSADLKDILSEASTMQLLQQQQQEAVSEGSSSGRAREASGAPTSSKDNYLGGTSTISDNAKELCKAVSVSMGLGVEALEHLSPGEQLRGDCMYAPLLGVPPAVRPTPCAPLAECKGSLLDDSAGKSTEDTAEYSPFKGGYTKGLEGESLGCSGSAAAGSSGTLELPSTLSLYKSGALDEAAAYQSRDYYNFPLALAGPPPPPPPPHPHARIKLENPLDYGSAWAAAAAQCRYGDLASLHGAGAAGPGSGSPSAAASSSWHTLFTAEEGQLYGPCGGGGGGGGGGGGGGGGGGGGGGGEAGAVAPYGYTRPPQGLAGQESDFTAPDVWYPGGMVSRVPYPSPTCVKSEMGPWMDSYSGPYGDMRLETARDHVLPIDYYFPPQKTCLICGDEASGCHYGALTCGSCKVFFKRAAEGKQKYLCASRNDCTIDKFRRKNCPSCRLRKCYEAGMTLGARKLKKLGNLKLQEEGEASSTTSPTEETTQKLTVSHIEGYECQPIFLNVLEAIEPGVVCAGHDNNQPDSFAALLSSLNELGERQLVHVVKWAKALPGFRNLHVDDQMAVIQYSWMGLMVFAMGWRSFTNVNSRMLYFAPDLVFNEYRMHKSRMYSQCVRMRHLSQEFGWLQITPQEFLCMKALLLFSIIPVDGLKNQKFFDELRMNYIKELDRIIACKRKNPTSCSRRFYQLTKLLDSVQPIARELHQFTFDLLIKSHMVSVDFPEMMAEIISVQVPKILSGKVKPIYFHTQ
As to the kind of experiment: Androgen receptor blocking in breast capsule (hard band) tissue. Format: binding. The arrangement: from tissue; host or cells: breast capsule (hard fibrous band) tissue; concentration or dose not given beside the values. From the text:
In addition to interabdominal adhesions following surgery, the other most common post-surgical fibrous complication is that of a hard fibrous band developing around breast implants following breast augmentation surgery. It has been postulated that these bands may be caused by keloid formation under the skin. Such tissues were studied to evaluate the effect of the anti-androgens of this invention on other keloid tissue.

Assay [3] concerns progesterone receptor. As to the kind of experiment: Progesterone receptor inhibition, Pseudomonas testosteroni. The assay is classed as binding.
Assay [4] relates to androgen receptor. As to the kind of experiment: Androgen receptor inhibition, Coccodia. Format: binding.
Assay [5] has as its system androgen receptor. The assay can be described thus: Androgen receptor inhibition, Trichophyton. Format: binding.
The subject of assay [6] is progesterone receptor. The assay can be described thus: Progesterone receptor inhibition, Fulsarium gravarium. Format: binding. From the text: (§1) In the second series of experiments using the compound of the invention 2-(5-hydroxyhept-1-yl) bicyclo[3.3.0]octan-7-one {hexahydro-4-(5-hydroxyheptyl)-2-(1H)-pentalenone} upon zeralenone and zearalanol production, zearalenone and zearalanol were chemically obtained from Sigma Chemical Co., St. Louis, Mo.

In assay [7] the test system is androgen receptor. As to the kind of experiment: Androgen receptor inhibition, Fulsarium gravarium. Format: binding.
Source text: as §1

The test system of assay [8] is androgen receptor. The assay is classed as binding. To be noted: Histoplasma.
Assay [9] concerns estrogen receptor. As to the kind of experiment: Estrogen receptor inhibition, Candida. The assay is classed as binding.
Assay [10] relates to estrogen receptor. As to the kind of experiment: Estrogen receptor inhibition, Actinomyces. Format: binding.
The test system of assay [11] is estrogen receptor. The assay can be described thus: Estrogen receptor inhibition, Fulsarium gravarium. Format: binding.
Source text: as §1

Assay [12] concerns estrogen receptor. The assay can be described thus: Estrogen receptor inhibition, Pseudomonas testosteroni. Format: binding.
Assay [13] concerns androgen receptor. The assay can be described thus: Androgen receptor inhibition, Actinomyces. The assay is classed as binding.

For the compound `CCC(CCCCC1CCC2CC(=O)CC12)OC` (stereo not drawn) [Compound V, 2-(5-Methoxyhept-1-yl)bicyclo[3.3.0]octan-7-one], the “effect on progesterone receptors in melanoma tissue” value in the assay on progesterone receptor [1] is given as “no significant effect”. For the same compound, the entries for the “effect on progesterone receptors” value in the assay with progesterone receptors and in the assay with progesterone receptors (listed as 2-(5-methoxyhept-1-yl)bicyclo[3.3.0]octan-7-one) were “without any significant effects” and “no significant effects”, respectively. Moreover, the “Mean % Androgen Inhibition” value is reported as 17% at androgen receptor [2] (breast capsule group 1), 49% at androgen receptor [2] (breast capsule group 2), 70% at androgen receptor [2] (breast capsule group 3) and 74% on androgen receptor [2] (breast capsule group 4).
For the compound `CCC(O)CCCCC1CCC2CC(=O)CC12` (stereo not drawn) [Compound IV], the “% Progesterone Receptor Inhibition” value in the assay with progesterone receptor [3] (strain 1) was determined as 0%; in the assay on progesterone receptor [3] (strain 2), 0%; in the assay on progesterone receptor [3] (strain 3), 0%; in the assay on progesterone receptor [3] (strain 4) it was 0%; in the assay on progesterone receptor [6] (DHT:anti-androgen 1:1), 1%; in the assay on progesterone receptor [6] (DHT:anti-androgen 1:10), 3%. For the same compound, the “% Progesterone Receptor Inhibition” value amounted to 6% with progesterone receptor [6] (DHT:anti-androgen 1:100) and 4% with progesterone receptor [6] (DHT:anti-androgen 1:1,000). In addition, the “% Androgen Receptor Inhibition” value in the assay with androgen receptor [4] was 67%; in the assay on androgen receptor [5] it was 81%; in the assay with androgen receptor [7] (DHT:anti-androgen 1:1), 26%; with androgen receptor [7] (DHT:anti-androgen 1:10) it was 49%; in the assay on androgen receptor [7] (DHT:anti-androgen 1:100) it was 67%; in the assay with androgen receptor [7] (DHT:anti-androgen 1:1,000), 87%. Further, the “% Androgen Receptor Inhibition” value in the assay with androgen receptor [8] amounted to 47%; in the assay with androgen receptor [13] it was 90%. Moreover, the “% Estrogen Receptor Inhibition” value in the assay with estrogen receptor [9], in the assay with estrogen receptor [10], in the assay with estrogen receptor [11] (DHT:anti-androgen 1:1), with estrogen receptor [11] (DHT:anti-androgen 1:10), in the assay with estrogen receptor [11] (DHT:anti-androgen 1:100) and in the assay on estrogen receptor [11] (DHT:anti-androgen 1:1,000) was 0% in each case. Besides, the “% Estrogen Receptor Inhibition” value with estrogen receptor [12] (strain 1), with estrogen receptor [12] (strain 2), in the assay on estrogen receptor [12] (strain 3) and with estrogen receptor [12] (strain 4) was 0% in each case.

The values are drawn from patent US4689345A, “Oxygenated alkyl substituted bicyclo alkanes” (CBD Corporation, priority 1986, dated 1987).
